Test results: patent US9452985B2, “Tau imaging probe” (GE Healthcare Limited, priority 2010, dated 2016)
Read-outs that look alike come from different tables or passages of the source.

Tests used:
K18-ΔK280 aggregates = K18-ΔK280 aggregates (Homo sapiens (Human), UniProt P10636, DEL597-597); assay: Competitive binding test using [^18F] THK-5105 as radioactive competitor; conditions: radioactive ligand [^18F] THK-5105 1.76 nM, K18-ΔK280 aggregates 200 nM, room temperature, one hour
Method: Regarding the binding of tau imaging probes to tau protein aggregates, a binding test was carried out and evaluated using a K18-ΔK280 construct which contained a 4-repeat structure involved in the formation of beta-sheet structures in the htau40 protein. For K18-ΔK280 (Martin von Bergen et al., THE JOURNAL OF BIOLOGICAL CHEMISTRY (2001), vol. 276, pp. 48165-48174; M. Goedert et al., NEURON (1989), vol. 3, pp. 519-526), an artificial gene fragment which was prepared based on its amino acid sequence was cloned into a pET-3a vector, the resulting plasmid was used to transform Escherichia coli BL21 (DE3) competent cells for protein expression, and the recombinant Escherichia coli cell was cultured to express K18-ΔK280. The K18-ΔK280 expressed was purified according to the method described in the literature (Stefan Barghorn et al., Methods in Molecular Biology, vol. 299, pp. 35-51). In the binding test, aggregates of the purified K18-ΔK280 were made and used.
K18-ΔK280 aggregates were made by preparing 20 μM PBS (pH 7.4) and incubating the K18-ΔK280 in the PBS at 37° C. for 4 days. The state where beta-sheet structures in K18-ΔK280 aggregates were formed was ascertained by thioflavin S fluorescence binding test. The aggregates solution was diluted to 400 nM in assay buffer (PBS, 0.1% BSA) and used in the binding test.
For tau imaging probes other than THK-5105, binding to K18-ΔK280 aggregates was evaluated with a competitive binding test using [^18F] THK-5105 as a radioactive competitor. In the binding test, [^18F] THK-5105 (at a final concentration of 1.76 nM) and a tested compound (at final concentrations of from 0.1 to 1000 nM) coexisted in the reaction system, to which K18-ΔK280 aggregates (at a final concentration of 200 nM) was then added and the mixtures were incubated at room temperature for one hour. The radioactivity of [^18F] THK-5105 binding to the aggregates was determined in a similar way as in the saturation binding test of THK-5105. The percentage of [^18F] THK-5105 bonding in the absence of each tested compound was set to be 100%, and percentages of [^18F] THK-5105 bonding at various concentrations of each of the tested compounds were determined.

[1] = Evaluation of brain delivery of [^18F] THK-5105, [^18F] THK-5117 and [^18F] THK-5125 in mice; type: in vivo, male ICR mice; conditions: for delivery to and washout from the brain / % ID/g 2 minutes post-administration: mice; for delivery to and washout from the brain: compared with [^18F] BAY94-9172, [^18F] AV-45 and [^18F] FDDNP; for % ID/g 2 minutes post-administration: tail vein, brain; for 2 minutes post-administration/60 minutes post-administration: quotient of brain % ID/g values
Method: A physiological saline solution containing [^18F] THK-5105, [^18F] THK-5117, or [^18F] THK-5125 was administered into the tail vein of male ICR mice (6 to 7 weeks old), and brain delivery of these label compounds was assessed from the accumulation of radioactivity in brain and plasma tissues at two minutes post-injection.
As an index in the evaluation of radioactive accumulation, use was made of the percentage of radioactivity per unit weight of brain relative to the total radioactivity administered (% Injected Dose/g of tissue; % ID/g). For measurement of radioactivity, a gamma counter (1480 WIZARD, Perkin Elmer) was used. Experimental procedures were as follows. A label compound was administered into the tail vein of mice. Two minutes later, each mouse was subjected to cervical dislocation under ether anesthesia, and the whole brain, including the cerebellum and brain stem, was isolated immediately. The radioactivity and tissue weight of the sample were measured, and their data were used to calculate a % ID/g values for the labeled compound.

[2] = test system: neurofibrillary tangles (tau protein); assay: Autoradiography experiments using [^18F] THK-5105, [^18F] THK-5117 and [^18F] THK-5125; type: binding, human; conditions: for affinity to neurofibrillary tangles (tau protein), autoradiography / accumulation in autoradiography of sections of the lateral temporal cortex and of the medial temporal cortex: Alzheimer's disease patient brain sections; for accumulation in autoradiography of sections of the lateral temporal cortex and of the medial temporal cortex: approximately 400 μCi/ml, 10 minutes
Method: Paraffin-embedded sections of the brain from an Alzheimer's disease patient were deparaffinized, and then immersed in PBS for 10 minutes. Approximately 400 μCi/ml of each of [^18F] THK-5105, [^18F] THK-5117, and [^18F] THK-5125 was added dropwise to deparaffinized sections and allowed to react for 10 minutes at room temperature. After that, the sections were immersed in distilled water for 2 minutes, shaken lightly in 50% EtOH for 2 minutes, immersed again in distilled water for 2 minutes, and dried in a paraffin stretching device. The section was left overnight in contact with an imaging plate. Next day, the image was read with a BAS 5000 (Fujifilm Corporation). In addition, adjacent sections were immunostained with anti-phosphorylated tau antibody (AT8).

[3] = Evaluation of brain delivery of [^18F] THK-5105, [^18F] THK-5117 and [^18F] THK-5125 in mice; type: in vivo, male ICR mice; conditions: tail vein
neurofibrillary tangles = assay: Staining test on brain section of Alzheimer's disease patients; type: binding, human; conditions: 100 μM solution in 50% ethanol, 10 minutes, fluorescence microscope
Source text: The procedure of staining test on the compounds of the present invention on the brain section of Alzheimer's disease patients is described below:
(1) We used the brain specimens of the temporal lobe or hippocampus from patients who were definitely diagnosed as having Alzheimer's disease pathology. The specimens were obtained from Choju Medical Institute, Fukushimura Hospital, our collaborating research institute, and the consent for use for research purposes was obtained from the patients' bereaved family (Fukushimura Hospital, Ethics Committee Approval No. 20).
(2) The paraffin-embedded brain tissue was sliced to 6 or 8 μm thickness, extended on a slide glass, and dried. The paraffinized brain section was deparaffinized by washing with xylene for 10 minutes×2, 100% ethanol for 5 minutes×2, 90% ethanol for 5 minutes, and running water for 10 minutes in this order.
(3) As a pretreatment for staining with the compounds of the present invention, the treatment to remove autofluorescence with lipofuscin was performed. First, the paraffinized brain section was immersed in 0.25% KMnO4 solution for 20 minutes. It was washed with PBS for 2 minutes twice, immersed in a 0.1% K2S2O5/oxalic acid solution for approximately 5 minutes, and further washed with PBS for 2 minutes 3 times.
(4) From 100 μM solution of the compounds of the present invention dissolved in 50% ethanol, approximately 150 μl was dropped on the section to react for 10 minutes. After being immersed in tap water 5 times, it was mounted with Flour Save Reagent (Calbiochem) and examined with a fluorescence microscope (Nikon, ECLIPSE 80i). The images were taken with a digital camera (Nikon, Dxin1200F or Photometrics, Cool SNAP ES).

[4] = data taken from Zhang et al. 2005 / Choi et al. 2009, cited from earlier work; for % ID/g 2 minutes post-administration / % ID/g 60 minutes post-administration: brain; for 2 minutes post-administration/60 minutes post-administration: quotient of brain % ID/g values
[5] = test system: neurofibrillary tangles (tau protein); assay: Autoradiography test with [^18F] BF-227 and [^18F] THK-5035 on brain section of Alzheimer's disease patients; type: binding, human; conditions: approximately 400 μCi/ml, 10 minutes
Method: After the paraffin-embedded brain section of Alzheimer's disease patients was deparaffinized, it was immersed in PBS for 10 minutes. Approximately 400 μCi/ml of [^18F] BF-227 and [^18F] THK-5035 were dropped on the section to react for 10 minutes at room temperature. It was immersed in distilled water for 2 minutes, shaken in 50% EtOH lightly for 2 minutes, immersed again in distilled water for 2 minutes, and dried in a paraffin extension device. The section was contacted on an imaging plate and settled overnight, and the next day, the images were read with a BAS5000 (Fujifilm Corporation). Furthermore, the serial section was immunostained with thioflavine-S staining and anti-tau antibody (AT8).

Sequence of K18-ΔK280 aggregates (P10636 other isoform, or with tags, fused parts or gaps del 597-597): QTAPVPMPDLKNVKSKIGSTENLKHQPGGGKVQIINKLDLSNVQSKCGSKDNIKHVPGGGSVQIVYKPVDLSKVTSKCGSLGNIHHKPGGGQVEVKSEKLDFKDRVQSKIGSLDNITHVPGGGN

For `Nc1ccc(-c2ccc3cc(OCCF)ccc3n2)cc1` [THK-523, reference compound], the Ki (K18-ΔK280 aggregates) was 59.3 nM.

In the case of `CN(C)c1ccc(-c2ccc3cc(OC[C@H](O)C[18F])ccc3n2)cc1` [[^18F] THK-5105], the “delivery to and washout from the brain” value [1] is reported as “superior in being delivered to and washed out from the brain”, the “% ID/g 2 minutes post-administration” value [1] is reported as 9.20 % ID/g and the “2 minutes post-administration/60 minutes post-administration” value [1] is reported as 9.20. The “affinity to neurofibrillary tangles (tau protein), autoradiography” value [2] was “high affinity to neurofibrillary tangles (tau protein)”, the “accumulation in autoradiography of sections of the lateral temporal cortex and of the medial temporal cortex” value [2] was “accumulated in the lateral temporal cortex and medial temporal cortex” and the “correspondence of autoradiography / unlabeled staining image with anti-phosphorylated tau antibody (AT8) immunostaining” value ([2]; hippocampus section and adjacent sections, higher magnification images) was “corresponded well with the image of immunostaining with the anti-phosphorylated tau antibody”. For the same compound, the “% ID/g 60 minutes post-administration” value [3] was 1.00 % ID/g.

For `CC(=C(C#N)C#N)c1ccc2cc(N(C)CCF)ccc2c1` [FDDNP, reference compound], the Ki (K18-ΔK280 aggregates) was 256 nM.

For `CC(=C(C#N)C#N)c1ccc2cc(N(C)CCF)ccc2c1` [[^18F]FDDNP, reference compound], the “% ID/g 2 minutes post-administration” value [1] was 6.23 % ID/g, the “2 minutes post-administration/60 minutes post-administration” value [1] was 2.91 and the “% ID/g 60 minutes post-administration” value [3] was 2.14 % ID/g.

With `Nc1ccc(-c2ccc3cc(OCC(O)CF)ccc3n2)cc1` (stereo not drawn) [THK-5116, 2-(4-aminophenyl)-6-[(3-fluoro-2-hydroxy)propoxy]quinoline] the “binding to neurofibrillary tangles in the brain section of Alzheimer's disease patients (staining test)” value (neurofibrillary tangles) was “bind to neurofibrillary tangles specifically and selectively” and the Ki (K18-ΔK280 aggregates) was 36 nM.

In the case of `CNc1ccc(/C=C/c2ccc(OCCOCCOCC[18F])cc2)cc1` [[^18F]BAY94-9172], the “% ID/g 2 minutes post-administration” value [4] is listed as 7.77 % ID/g, the “% ID/g 60 minutes post-administration” value [4] is listed as 1.61 % ID/g and the “2 minutes post-administration/60 minutes post-administration” value [4] is listed as 4.83.

In the case of `CCN(CC)c1ccc(-c2ccc3cc(OCC(O)CF)ccc3n2)cc1` (stereo not drawn) [THK-5122, 6-[(3-fluoro-2-hydroxy)propoxy]-2-(4-diethylaminophenyl)quinoline], the Ki (K18-ΔK280 aggregates) is reported as 34.9 nM.

For `CN(C)c1ccc(-c2ccc3cc(OCC(O)CF)ccc3n2)cn1` (stereo not drawn) [THK-5129, 6-[(3-fluoro-2-hydroxy)propoxy]-2-(2-dimethylaminopyrid-5-yl)quinoline], the Ki (K18-ΔK280 aggregates) was 21.4 nM.

For `CNc1ccc(-c2ccc3cc(OCC(O)C[18F])ccc3n2)cc1` (stereo not drawn) [[^18F] THK-5117], the “delivery to and washout from the brain” value [1] was “superior in being delivered to and washed out from the brain”, the “% ID/g 2 minutes post-administration” value [1] was 6.06 % ID/g and the “2 minutes post-administration/60 minutes post-administration” value [1] was 23.3. For the same compound, the “affinity to neurofibrillary tangles (tau protein), autoradiography” value [2] was “high affinity to neurofibrillary tangles (tau protein)”, the “accumulation in autoradiography of sections of the lateral temporal cortex and of the medial temporal cortex” value [2] was “accumulated in the lateral temporal cortex and medial temporal cortex” and the “% ID/g 60 minutes post-administration” value [3] was 0.26 % ID/g.

For `CCNc1ccc(-c2ccc3cc(OCC(O)CF)ccc3n2)cc1` (stereo not drawn) [THK-5125, 2-(4-ethylaminophenyl)-6-[(3-fluoro-2-hydroxy)propoxy]quinoline], the Ki (K18-ΔK280 aggregates) was 9.2 nM.

In the case of `CNc1ccc(-c2ccc3cc(OCC(O)CF)ccc3n2)cc1` (stereo not drawn) [THK-5117, 6-[(3-fluoro-2-hydroxy)propoxy]-2-(4-methylaminophenyl)quinoline], the “binding to neurofibrillary tangles in the brain section of Alzheimer's disease patients (staining test)” value (neurofibrillary tangles) is reported as “bind to neurofibrillary tangles specifically and selectively” and the Ki (K18-ΔK280 aggregates) is reported as 10.5 nM.

Compound `CNc1ccc(-c2ccc3cc(OCC(O)CF)ccc3n2)cn1` (stereo not drawn) [THK-5151, 2-(2-methylaminopyrid-5-yl)-6-[(3-fluoro-2-hydroxy)propoxy]quinoline] has a Ki (K18-ΔK280 aggregates) of 40.1 nM.

With `CN(C)c1ncc(C=Cc2nc3ccc(OCCF)cc3o2)s1` [[^18F] BF-227] the “accumulation in the region where [^18F] THK-5035 was accumulated (anti-tau antibody positive region), autoradiography” value [5] was “no accumulation”.

In the case of `CNc1ccc(/C=C/c2ccc(OCCOCCOCC[18F])nc2)cc1` [[^18F]AV-45], the “% ID/g 2 minutes post-administration” value [4] is listed as 7.33 % ID/g, the “% ID/g 60 minutes post-administration” value [4] is listed as 1.88 % ID/g and the “2 minutes post-administration/60 minutes post-administration” value [4] is listed as 3.90.
